The record followed here is patent publication US8822451B2, “Modulators of ATP-binding cassette transporters” (Vertex Pharmaceuticals Incorporated, priority 2005, dated 2014).

For the first assay, the target named is T1, […]F508-CFTR (Homo sapiens, UniProt P13569, DEL508-508).
T1 construct: expressed in transfected cells
T1 sequence (P13569 with tags, fused parts or gaps DEL508-508): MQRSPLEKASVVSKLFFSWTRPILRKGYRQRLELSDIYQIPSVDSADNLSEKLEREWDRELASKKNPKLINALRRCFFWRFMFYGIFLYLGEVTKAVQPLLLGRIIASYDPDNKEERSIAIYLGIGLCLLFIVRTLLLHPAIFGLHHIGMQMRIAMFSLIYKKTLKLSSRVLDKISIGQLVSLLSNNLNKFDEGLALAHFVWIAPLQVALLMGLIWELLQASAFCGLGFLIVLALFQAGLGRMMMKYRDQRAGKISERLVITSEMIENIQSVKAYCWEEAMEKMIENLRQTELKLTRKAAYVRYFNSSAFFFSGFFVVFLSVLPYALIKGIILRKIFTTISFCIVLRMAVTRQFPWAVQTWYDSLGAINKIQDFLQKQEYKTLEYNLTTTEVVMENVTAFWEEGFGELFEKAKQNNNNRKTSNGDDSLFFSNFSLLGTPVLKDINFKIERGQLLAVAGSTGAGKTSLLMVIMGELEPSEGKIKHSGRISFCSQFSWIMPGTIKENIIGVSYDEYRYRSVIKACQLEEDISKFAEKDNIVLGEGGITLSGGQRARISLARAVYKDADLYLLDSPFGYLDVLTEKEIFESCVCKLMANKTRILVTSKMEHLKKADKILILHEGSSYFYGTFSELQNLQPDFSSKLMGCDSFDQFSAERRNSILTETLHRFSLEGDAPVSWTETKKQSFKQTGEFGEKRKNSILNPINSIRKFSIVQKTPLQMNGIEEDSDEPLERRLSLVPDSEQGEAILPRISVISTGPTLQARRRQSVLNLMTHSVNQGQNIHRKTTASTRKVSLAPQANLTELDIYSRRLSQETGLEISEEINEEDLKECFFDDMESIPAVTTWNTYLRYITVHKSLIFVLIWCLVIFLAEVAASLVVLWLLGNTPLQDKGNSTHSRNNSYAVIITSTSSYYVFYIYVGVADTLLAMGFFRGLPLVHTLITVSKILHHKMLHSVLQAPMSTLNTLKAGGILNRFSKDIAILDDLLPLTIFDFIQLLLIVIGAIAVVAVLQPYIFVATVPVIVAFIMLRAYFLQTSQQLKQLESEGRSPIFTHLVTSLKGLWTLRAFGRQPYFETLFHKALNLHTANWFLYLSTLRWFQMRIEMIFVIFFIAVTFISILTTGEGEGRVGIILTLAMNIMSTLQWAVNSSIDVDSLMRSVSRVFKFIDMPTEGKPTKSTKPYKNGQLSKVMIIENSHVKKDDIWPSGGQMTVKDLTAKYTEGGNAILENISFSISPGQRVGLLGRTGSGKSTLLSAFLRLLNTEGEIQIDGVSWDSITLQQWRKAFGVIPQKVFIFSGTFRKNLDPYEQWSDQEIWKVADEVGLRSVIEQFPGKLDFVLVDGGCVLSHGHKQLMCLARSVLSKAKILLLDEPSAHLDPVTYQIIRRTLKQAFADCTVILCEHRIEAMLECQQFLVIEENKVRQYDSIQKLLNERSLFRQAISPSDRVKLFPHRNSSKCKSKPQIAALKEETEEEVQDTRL
Put plainly: Assay results of Table 3: ΔF508-CFTR modulation, membrane potential optical assay (assay format not stated). It counts as cell-based. Particulars: efficacy range; NIH3T3 mouse fibroblasts stably expressing […]F508-CFTR (optical assays). Summed up: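 NIH3T3 mouse fibroblasts stably expressing ΔF508-CFTR; FRET membrane-potential dyes (CC2-DMPE/DiSBAC2(3)) read on VIPR II. Correctors: 16 h at 37° C. with compound, then 10 μM forskolin + 20 μM genistein in Cl⁻-free medium. Potentiators: cells at 27° C. 24 h, compound then 2-10 μM forskolin; EC50 and efficacy derived.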
Take `CCCN(CC1CC1)c1nc(C(N)=O)cc(-c2ccccc2OC)n1` [Compound 39]: the Efficacy result is on record as “+++ (+++ corresponds to Efficacy greater than 100)”.

In the case of `CN(C)c1nc(C(N)=O)cc(-c2ccccc2)n1` [Compound 9], the Efficacy entry is “++ (++ corresponds to Efficacy between 100 and 50)”.

Regarding `NC(=O)c1cc(-c2ccccc2)nc(N2CCC3CCCCC3C2)n1` (centres unmarked) [Compound 148], the Efficacy entry was “++ (++ corresponds to Efficacy between 100 and 50)”.

As to `NC(=O)c1cc(-c2ccccc2C(F)(F)F)nc(N2CCCCC2)n1` [Compound 72], the Efficacy result was “++ (++ corresponds to Efficacy between 100 and 50)”.

Turning to `NC(=O)c1cc(-c2ccccc2)nc(N2CCC(n3c(=O)[nH]c4ccccc43)CC2)n1` [Compound 139], the Efficacy entry is “++ (++ corresponds to Efficacy between 100 and 50)”.

Regarding `NC(=O)c1cc(-c2cccc(OC(F)(F)F)c2)nc(N2CCCCC2)n1` [Compound 213], the Efficacy entry is recorded as “+ (+ corresponds to Efficacy less than 50)”.

Turning to `NC(=O)c1cc(-c2ccccc2)nc(N2CC=CC2)n1` [Compound 79], the Efficacy result is reported as “+++ (+++ corresponds to Efficacy greater than 100)”.

For `CCOc1cccc(-c2cc(C(N)=O)nc(N3CCCCC3)n2)c1` [Compound 194], the Efficacy result is “+++ (+++ corresponds to Efficacy greater than 100)”.

Turning to `NC(=O)c1cc(-c2ccccc2)nc(NCc2ccco2)n1` [Compound 216], the Efficacy result was “++ (++ corresponds to Efficacy between 100 and 50)”.

`COc1ccccc1-c1cc(C(N)=O)nc(N2CC=CCC2)n1` [Compound 135]: the Efficacy entry is “++ (++ corresponds to Efficacy between 100 and 50)”.

Consider `NC(=O)c1cc(-c2ccccc2)nc(CC2CCCCC2)n1` [Compound 136], for which the Efficacy result is “++ (++ corresponds to Efficacy between 100 and 50)”.

On to `CNC(=O)c1cc(-c2ccccc2)nc(NC)n1` [Compound 103], for which the Efficacy result is on record as “+ (+ corresponds to Efficacy less than 50)”.

Take `CCN(CC)c1nc(C(N)=O)cc(-c2ccc(OC)nc2)n1` [Compound 229]: the Efficacy result was “++ (++ corresponds to Efficacy between 100 and 50)”.

With `COc1cccc(-c2cc(C(N)=O)nc(N3CCOCC3)n2)c1` [Compound 211], the Efficacy result was “++ (++ corresponds to Efficacy between 100 and 50)”.

Turning to `CN(CCc1ccccc1)c1nc(C(N)=O)cc(-c2ccccc2)n1` [Compound 38], the Efficacy result is reported as “+++ (+++ corresponds to Efficacy greater than 100)”.

As to `CCN(CC)c1nc(C(N)=O)cc(-c2cccc(OC(F)(F)F)c2)n1` [Compound 84], the Efficacy entry is “++ (++ corresponds to Efficacy between 100 and 50)”.

In the case of `COc1ccc(-c2cc(C(N)=O)nc(N3CCCCC3)n2)cn1` [Compound 22], the Efficacy entry is “++ (++ corresponds to Efficacy between 100 and 50)”.

With `NC(=O)c1cc(-c2ccccc2)nc(N2CCC(O)(c3ccc(Cl)cc3)CC2)n1` [Compound 42], the Efficacy entry is given as “+ (+ corresponds to Efficacy less than 50)”.

Regarding `COc1ccc(Cl)cc1-c1cc(C(N)=O)nc(N2CCCCC2)n1` [Compound 115], the Efficacy entry was “++ (++ corresponds to Efficacy between 100 and 50)”.

On to `CCCN(CCO)c1nc(C(N)=O)cc(-c2ccccc2)n1` [Compound 100], for which the Efficacy result is “++ (++ corresponds to Efficacy between 100 and 50)”.

Consider `Cc1ccccc1-c1cc(C(N)=O)nc(N2CCCCC2)n1` [Compound 114], for which the Efficacy result is listed as “+++ (+++ corresponds to Efficacy greater than 100)”.

Turning to `NC(=O)c1cc(-c2cccc(F)c2F)nc(N2CCCCC2)n1` [Compound 6], the Efficacy entry is “++ (++ corresponds to Efficacy between 100 and 50)”.

With `CNC(=O)c1cc(-c2ccccc2)nc(N2CCCCCC2)n1` [Compound 36], the Efficacy result is listed as “+ (+ corresponds to Efficacy less than 50)”.

As to `NC(=O)c1cc(-c2cccc(F)c2)nc(N2CCCCC2)n1` [Compound 122], the Efficacy entry is given as “+++ (+++ corresponds to Efficacy greater than 100)”.

`CCCNc1nc(C(N)=O)cc(-c2ccccc2)n1` [Compound 30]: the Efficacy entry is “++ (++ corresponds to Efficacy between 100 and 50)”.

Consider `COc1ccc(-c2cc(C(N)=O)nc(N3CCCCCC3)n2)cc1` [Compound 78], for which the Efficacy result is “++ (++ corresponds to Efficacy between 100 and 50)”.

For `CCCN(CC1CC1)c1nc(C(N)=O)cc(-c2cccc(OC)c2)n1` [Compound 89], the Efficacy entry is reported as “+++ (+++ corresponds to Efficacy greater than 100)”.

For the compound `CCN(CC)c1nc(C(N)=O)cc(-c2ccccc2C)n1` [Compound 61], the Efficacy result was “++ (++ corresponds to Efficacy between 100 and 50)”.

`CNc1nc(C(N)=O)cc(-c2ccccc2)n1` [Compound 179]: the Efficacy entry was “+ (+ corresponds to Efficacy less than 50)”.

For the compound `CCN(CC)c1nc(C(N)=O)cc(-c2ccc(Cl)cc2Cl)n1` [Compound 200], the Efficacy result is “++ (++ corresponds to Efficacy between 100 and 50)”.

Regarding `CC(C)CN(C)c1nc(C(N)=O)cc(-c2ccccc2)n1` [Compound 159], the Efficacy entry is “+++ (+++ corresponds to Efficacy greater than 100)”.

`CCN(CC)c1nc(C(N)=O)cc(-c2cc(Cl)cc(Cl)c2)n1` [Compound 226]: the Efficacy result is “++ (++ corresponds to Efficacy between 100 and 50)”.

As for `CCN(CC)c1nc(C(N)=O)cc(-c2ccc(Cl)cc2)n1` [Compound 147], the Efficacy entry was “++ (++ corresponds to Efficacy between 100 and 50)”.

Take `NC(=O)c1cc(-c2ccccc2)nc(N2CCC(CCO)CC2)n1` [Compound 181]: the Efficacy entry was “++ (++ corresponds to Efficacy between 100 and 50)”.

Consider `CCN(CC)c1nc(C(N)=O)cc(-c2cc3ccccc3s2)n1` [Compound 81], for which the Efficacy entry was “+++ (+++ corresponds to Efficacy greater than 100)”.

For the compound `CCOc1ccc(-c2cc(C(N)=O)nc(N3CCCCC3)n2)cc1` [Compound 198], the Efficacy entry is “+ (+ corresponds to Efficacy less than 50)”.

For the compound `CCCN(CC1CC1)c1nc(C(N)=O)cc(-c2ccccc2)n1` [Compound 87], the Efficacy result is “++ (++ corresponds to Efficacy between 100 and 50)”.

The assay is the same for the next values; noted with them: potency range; NIH3T3 mouse fibroblasts stably expressing […]F508-CFTR (optical assays).
One may read the EC50 as the midpoint of the concentration-response curve. For `CCCN(CC1CC1)c1nc(C(N)=O)cc(-c2ccccc2OC)n1` [Compound 39], the EC50 is above 5 µM.

Take `CN(C)c1nc(C(N)=O)cc(-c2ccccc2)n1` [Compound 9]: the EC50 is above 5 µM.

For the compound `NC(=O)c1cc(-c2ccccc2)nc(N2CCC3CCCCC3C2)n1` (centres unmarked) [Compound 148], the EC50 was 1 to 5 µM.

For `NC(=O)c1cc(-c2ccccc2C(F)(F)F)nc(N2CCCCC2)n1` [Compound 72], the EC50 fell in the range of 1 to 5 µM.

For `NC(=O)c1cc(-c2ccccc2)nc(N2CCC(n3c(=O)[nH]c4ccccc43)CC2)n1` [Compound 139], the EC50 was above 5 µM.

Regarding `NC(=O)c1cc(-c2cccc(OC(F)(F)F)c2)nc(N2CCCCC2)n1` [Compound 213], the EC50 is 1 to 5 µM.

Consider `NC(=O)c1cc(-c2ccccc2)nc(N2CC=CC2)n1` [Compound 79], for which the half-maximal effective concentration (EC50) is 1 to 5 µM.

Consider `CCOc1cccc(-c2cc(C(N)=O)nc(N3CCCCC3)n2)c1` [Compound 194], for which the EC50 fell in the range of 1 to 5 µM.

As for `NC(=O)c1cc(-c2ccccc2)nc(NCc2ccco2)n1` [Compound 216], the EC50 was above 5 µM.

Turning to `COc1ccccc1-c1cc(C(N)=O)nc(N2CC=CCC2)n1` [Compound 135], the EC50 is above 5 µM.

In the case of `NC(=O)c1cc(-c2ccccc2)nc(CC2CCCCC2)n1` [Compound 136], the EC50 was above 5 µM.

`CNC(=O)c1cc(-c2ccccc2)nc(NC)n1` [Compound 103]: the EC50 is below 1 µM.

Regarding `CCN(CC)c1nc(C(N)=O)cc(-c2ccc(OC)nc2)n1` [Compound 229], the EC50 lay within 1 to 5 µM.

With `COc1cccc(-c2cc(C(N)=O)nc(N3CCOCC3)n2)c1` [Compound 211], the EC50 is above 5 µM.

Regarding `CN(CCc1ccccc1)c1nc(C(N)=O)cc(-c2ccccc2)n1` [Compound 38], the EC50 was in the range of 1 to 5 µM.

In the case of `CCN(CC)c1nc(C(N)=O)cc(-c2cccc(OC(F)(F)F)c2)n1` [Compound 84], the EC50 was below 1 µM.

For the compound `COc1ccc(-c2cc(C(N)=O)nc(N3CCCCC3)n2)cn1` [Compound 22], the EC50 was above 5 µM.

With `NC(=O)c1cc(-c2ccccc2)nc(N2CCC(O)(c3ccc(Cl)cc3)CC2)n1` [Compound 42], the EC50 was above 5 µM.

As for `COc1ccc(Cl)cc1-c1cc(C(N)=O)nc(N2CCCCC2)n1` [Compound 115], the EC50 fell in the range of 1 to 5 µM.

Regarding `CCCN(CCO)c1nc(C(N)=O)cc(-c2ccccc2)n1` [Compound 100], the EC50 is 1 to 5 µM.

`Cc1ccccc1-c1cc(C(N)=O)nc(N2CCCCC2)n1` [Compound 114]: the EC50 fell in the range of 1 to 5 µM.

In the case of `NC(=O)c1cc(-c2cccc(F)c2F)nc(N2CCCCC2)n1` [Compound 6], the EC50 was 1 to 5 µM.

For `CNC(=O)c1cc(-c2ccccc2)nc(N2CCCCCC2)n1` [Compound 36], the EC50 was in the range of 1 to 5 µM.

Take `NC(=O)c1cc(-c2cccc(F)c2)nc(N2CCCCC2)n1` [Compound 122]: the EC50 was above 5 µM.

As to `CCCNc1nc(C(N)=O)cc(-c2ccccc2)n1` [Compound 30], the EC50 is above 5 µM.

With `COc1ccc(-c2cc(C(N)=O)nc(N3CCCCCC3)n2)cc1` [Compound 78], the EC50 lay within 1 to 5 µM.

Consider `CCCN(CC1CC1)c1nc(C(N)=O)cc(-c2cccc(OC)c2)n1` [Compound 89], for which the EC50 lay in the range of 1 to 5 µM.

`CCN(CC)c1nc(C(N)=O)cc(-c2ccccc2C)n1` [Compound 61]: the EC50 lay in the range of 1 to 5 µM.

`CNc1nc(C(N)=O)cc(-c2ccccc2)n1` [Compound 179]: the EC50 is above 5 µM.

In the case of `CCN(CC)c1nc(C(N)=O)cc(-c2ccc(Cl)cc2Cl)n1` [Compound 200], the EC50 was below 1 µM.

Consider `CC(C)CN(C)c1nc(C(N)=O)cc(-c2ccccc2)n1` [Compound 159], for which the EC50 fell in the range of 1 to 5 µM.

As for `CCN(CC)c1nc(C(N)=O)cc(-c2cc(Cl)cc(Cl)c2)n1` [Compound 226], the EC50 lay within 1 to 5 µM.

For `CCN(CC)c1nc(C(N)=O)cc(-c2ccc(Cl)cc2)n1` [Compound 147], the EC50 is below 1 µM.

Turning to `NC(=O)c1cc(-c2ccccc2)nc(N2CCC(CCO)CC2)n1` [Compound 181], the EC50 was above 5 µM.

Take `CCN(CC)c1nc(C(N)=O)cc(-c2cc3ccccc3s2)n1` [Compound 81]: the EC50 was in the range of 1 to 5 µM.

Turning to `CCOc1ccc(-c2cc(C(N)=O)nc(N3CCCCC3)n2)cc1` [Compound 198], the EC50 lay in the range of 1 to 5 µM.

Take `CCCN(CC1CC1)c1nc(C(N)=O)cc(-c2ccccc2)n1` [Compound 87]: the EC50 was 1 to 5 µM.
